Key:
GCN2 [1] = biological target: T1, GCN2 (Homo sapiens, UniProt Q9P2K8); assay: GCN2 enzyme assay (TR-FRET Lanthascreen, phosphorylation of GFP-eIF2alpha); format: biochemical; conditions: 10 μM ATP, 80 nM GFP-eIF2alpha, 30 nM GCN2, room temperature
Description: GCN2: Assay principle & conditions
This assay can quantificate the activity of the serin kinase GCN2 (general control non-derepressible-2).
This kinase is involved in the stress metabolism of cells. It is activated upon starvation (amino acid depletion). Its natural substrate is eIF2a (eukaryotic initiation factor 2 alpha subunit), a translation factor, which gets activated (phosphorylated) by GCN2 in case of an amino acid bottleneck in the cells. This in turn leads to a halt of the protein synthesis. Inhibition of GCN2 results in stopping this mechanism: The cell can not stop protein production upon “starvation” stress.
The assay is run in two steps: the enzymatic reaction and the detection step. In the first step GCN2 is incubated with 10 μM ATP and 80 nM of the GFP-labelled substrate eIF2alpha at room temperature.
The enzymatic reaction is stopped by addition of EDTA. The amount of phosphorylated eIF2alpha is determined by TR-FRET (Lanthascreen): A complex is formed consisting of antibody and GFP labelled phospho-eIF2a, which allows a FRET upon exitation at 340 nm.
The GCN2-activity is directly proportional to the ratio of fluorescence units at the emission wavelengthh 520 nm (phosphopeptide-sensitive wavelength=emission of GFP) to the units at 495 nm (reference wavelength=emission of Terbium-chelate).
Final Concentrations in the Enzymatic Reaction
Target sequence in this assay (Q9P2K8 whole entry, species assumed): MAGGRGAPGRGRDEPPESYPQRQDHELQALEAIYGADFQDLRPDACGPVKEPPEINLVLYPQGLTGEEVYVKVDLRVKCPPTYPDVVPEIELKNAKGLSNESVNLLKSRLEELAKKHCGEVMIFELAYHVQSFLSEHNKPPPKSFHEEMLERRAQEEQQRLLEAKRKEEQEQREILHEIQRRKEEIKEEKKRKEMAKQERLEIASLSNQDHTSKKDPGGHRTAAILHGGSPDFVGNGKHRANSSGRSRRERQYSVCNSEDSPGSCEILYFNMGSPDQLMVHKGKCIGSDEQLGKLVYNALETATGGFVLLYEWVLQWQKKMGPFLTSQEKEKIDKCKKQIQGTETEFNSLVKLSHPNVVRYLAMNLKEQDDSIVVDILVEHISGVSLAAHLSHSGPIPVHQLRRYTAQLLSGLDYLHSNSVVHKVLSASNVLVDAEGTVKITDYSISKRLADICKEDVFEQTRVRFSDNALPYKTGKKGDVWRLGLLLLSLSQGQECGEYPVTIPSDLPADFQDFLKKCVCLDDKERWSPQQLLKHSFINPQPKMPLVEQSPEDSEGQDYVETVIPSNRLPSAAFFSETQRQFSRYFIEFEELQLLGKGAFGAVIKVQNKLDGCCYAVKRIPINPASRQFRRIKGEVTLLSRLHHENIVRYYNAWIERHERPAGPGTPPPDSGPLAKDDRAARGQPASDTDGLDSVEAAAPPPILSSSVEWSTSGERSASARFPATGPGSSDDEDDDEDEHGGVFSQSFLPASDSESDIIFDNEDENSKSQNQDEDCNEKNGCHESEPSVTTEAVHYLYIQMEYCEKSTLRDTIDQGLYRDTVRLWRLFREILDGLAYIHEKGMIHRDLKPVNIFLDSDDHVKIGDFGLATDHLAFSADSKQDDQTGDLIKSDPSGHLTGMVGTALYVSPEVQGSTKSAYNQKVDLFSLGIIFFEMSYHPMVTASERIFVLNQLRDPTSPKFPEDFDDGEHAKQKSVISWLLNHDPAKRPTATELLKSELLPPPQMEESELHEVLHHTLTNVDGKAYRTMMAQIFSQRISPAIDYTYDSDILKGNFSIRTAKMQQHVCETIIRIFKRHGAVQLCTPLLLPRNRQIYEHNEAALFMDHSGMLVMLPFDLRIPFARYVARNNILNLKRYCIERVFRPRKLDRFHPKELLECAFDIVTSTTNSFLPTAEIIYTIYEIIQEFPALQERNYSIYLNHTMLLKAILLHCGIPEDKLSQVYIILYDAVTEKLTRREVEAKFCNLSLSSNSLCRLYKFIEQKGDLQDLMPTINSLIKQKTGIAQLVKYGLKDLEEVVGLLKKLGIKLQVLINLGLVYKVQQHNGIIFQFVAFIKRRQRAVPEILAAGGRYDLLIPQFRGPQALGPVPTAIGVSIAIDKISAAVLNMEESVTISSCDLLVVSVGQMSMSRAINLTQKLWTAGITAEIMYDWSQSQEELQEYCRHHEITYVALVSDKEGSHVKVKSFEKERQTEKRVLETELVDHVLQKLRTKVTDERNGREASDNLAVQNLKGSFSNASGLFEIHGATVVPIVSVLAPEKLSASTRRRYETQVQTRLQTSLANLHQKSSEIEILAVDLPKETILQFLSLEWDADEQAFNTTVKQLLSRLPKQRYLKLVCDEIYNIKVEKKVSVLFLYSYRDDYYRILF

GCN2 [2] = biological target: T1, GCN2; assay: Cellular assay for GCN2 activity (phospho-eIF2alpha immunocytochemistry, tryptophanol-stimulated U2OS cells); format: cell-based; design: endogenous in cells; host or cells: U2OS; conditions: 2 hours compound, then 600 μM tryptophanol 30 minutes, anti-phospho-eIF2alpha, read-out: IC50 GCN2 (cell assay)
Protocol: Cellular Assay for the Determination of Compound Activities
Human U2OS cells (2000 cells/well) are seeded into 384-well plates and incubated for 20 hours.
The next day, the cells are treated with the test compounds and incubated for 2 hours. Then, tryptophanol, at a final concentration of 600 μM, is added to the cells and those are incubated for 30 minutes.
The analysis of cellular GCN2 activities is done by immunocytochemistry. Briefly, cells are fixated on the well surfaces by formaldehyde and permeabilised with Triton X-100. The primary antibody (anti-phospho-eIF2alpha (Ser51, Cell Signalling Technology, #3398) is incubated on the treated cells for 20 hours, followed by a 60 minutes incubation of the secondary antibody (anti-rabbit-IgG-Alexa 488; Molecular Probes #11008). The analysis and quantification of phosphorylated GCN2 is done by scanning the plates in the Acumen Explorer system (TTPLabtech). The obtained data are normalised against the untreated control wells (DMSO only) and expressed as % effect values. The determination of IC50 values is done by using the Graph Pad Prism software.
Target sequence in this assay (Q9P2K8 whole entry): as the sequence (Q9P2K8 whole entry, species assumed) above

Row | SMILES | IC50 (GCN2 [1]) [nM] | IC50 (GCN2 [2]) [µM]
1 | COc1ccc(-n2nnc3cnc(Nc4cn[nH]c4)nc32)cc1 [Compound A3, [3-(4-methoxy-phenyl)-3H-[1,2,3]triazolo[4,5-d]pyrimidin-5-yl]-(1H-pyrazol-4-yl)-amine] | < 300 | 3 to 50
2 | COc1ccc(-n2nnc3cnc(Nc4cnn(C5CCN(C)CC5)c4)nc32)cc1 [Compound A8, [3-(4-methoxy-phenyl)-3H-[1,2,3]triazolo[4,5-d]pyrimidin-5-yl]-[1-(1-methyl-piperidin-4-yl)-1H-pyrazol-4-yl]-amine] | < 300 | 0.3 to 3
3 | COc1ccc(-n2nnc3cnc(Nc4cnn(C5COC5)c4)nc32)cc1 [Compound A23, 3-(4-methoxyphenyl)-N-[1-(oxetan-3-yl)pyrazol-4-yl]triazolo[4,5-d]pyrimidin-5-amine] | < 300 | 0.3 to 3
4 | COCCOc1ccc(-n2nnc3cnc(Nc4cnn(C5CCN(C)CC5)c4)nc32)cc1 [Compound A27, 3-[4-(2-methoxyethoxy)phenyl]-N-[1-(1-methyl-4-piperidyl)pyrazol-4-yl]triazolo[4,5-d]pyrimidin-5-amine] | < 300 | 0.3 to 3
5 | CCOc1ccc(-n2nnc3cnc(Nc4cnn(C5CCN(C)CC5)c4)nc32)cc1 [Compound A28, 3-(4-ethoxyphenyl)-N-[1-(1-methyl-4-piperidyl)pyrazol-4-yl]triazolo[4,5-d]pyrimidin-5-amine] | < 300 | 0.3 to 3
6 | CCOc1ccc(-n2nnc3cnc(Nc4cnn(CC)c4)nc32)cc1 [Compound A46, [3-(4-ethoxy-phenyl)-3H-[1,2,3]triazolo[4,5-d]pyrimidin-5-yl]-(1-ethyl-1H-pyrazol-4-yl)-amine] | < 300 | 0.3 to 3
7 | CN1CCC(n2cc(Nc3ncc4nnn(-c5ccc(N6CCCC6=O)cc5)c4n3)cn2)CC1 [Compound A48, 1-(4-{5-[1-(1-methyl-piperidin-4-yl)-1H-pyrazol-4-ylamino]-[1,2,3]triazolo[4,5-d]pyrimidin-3-yl}-phenyl)-pyrrolidin-2-one] | < 300 | 0.3 to 3
8 | CCOc1ccc(-n2nnc3cnc(Nc4cnn(CCCOC)c4)nc32)cc1 [Compound A49, [3-(4-ethoxy-phenyl)-3H-[1,2,3]triazolo[4,5-d]pyrimidin-5-yl]-[1-(3-methoxy-propyl)-1H-pyrazol-4-yl]-amine] | < 300 | 3 to 50
9 | CCOc1ccc(-n2nnc3cnc(Nc4cnn(CCOC(C)(C)C)c4)nc32)cc1 [Compound A51, [1-(2-tert-butoxy-ethyl)-1H-pyrazol-4-yl]-[3-(4-ethoxy-phenyl)-3H-[1,2,3]triazolo[4,5-d]pyrimidin-5-yl]-amine] | < 300 | 0.3 to 3
10 | CCOc1ccc(-n2nnc3cnc(Nc4cnn(CCn5cccn5)c4)nc32)cc1 [Compound A54, [3-(4-ethoxy-phenyl)-3H-[1,2,3]triazolo[4,5-d]pyrimidin-5-yl]-[1-(2-pyrazol-1-yl-ethyl)-1H-pyrazol-4-yl]-amine] | < 300 | 0.3 to 3
11 | COCCOc1ccc(-n2nnc3cnc(Nc4cnn(CCn5cccn5)c4)nc32)cc1 [Compound A65, {3-[4-(2-methoxy-ethoxy)-phenyl]-3H-[1,2,3]trtazolo[4,5-d]pyrimidin-5-yl}-[1-(2-pyrazol-1-yl-ethyl)-1H-pyrazol-4-yl]-amine] | < 300 | 0.3 to 3
12 | CN1CCC(n2cc(Nc3ncc4nnn(-c5cccc(C(N)=O)c5)c4n3)cn2)CC1 [Compound A67, 3-{5-[1-(1-methyl-piperidin-4-yl)-1H-pyrazol-4-ylamino]-[1,2,3]triazolo[4,5-d]pyrimidin-3-yl}-benzamide] | < 300 | 3 to 50
13 | CCOc1ccc(-n2nnc3cnc(Nc4cnn(CCN5CCOCC5=O)c4)nc32)cc1 [Compound A149, 4-(2-{4-[3-(4-ethoxy-phenyl)-3H-[1,2,3]triazolo[4,5-d]pyrimidin-5-ylamino]-pyrazol-1-yl}-ethyl)-morpholin-3-one] | < 300 | –
14 | CCOc1ccc(-n2nnc3cnc(Nc4cnn(C5CN(C(=O)COC)C5)c4)nc32)cc1 [Compound A150, 1-(3-{4-[3-(4-ethoxy-phenyl)-3H-[1,2,3]triazolo[4,5-d]pyrimidin-5-ylamino]-pyrazol-1-yl}-azetidin-1-yl)-2-methoxy-ethanone] | < 300 | –
15 | CN1CCC(n2cc(Nc3ncc4nnn(-c5ccc(Cl)cc5)c4n3)cn2)CC1 [Compound A153, [3-(4-chloro-phenyl)-3H-[1,2,3]triazolo[4,5-d]pyrimidin-5-yl]-[1-(1-methyl-piperidin-4-yl)-1H-pyrazol-4-yl]-amine] | < 300 | –

The remaining lines, values ahead:

Row | IC50 (GCN2 [1]) [nM] | IC50 (GCN2 [2]) [µM] | SMILES
16 | < 300 | 0.3 to 3 | OC[C@@H]1C[C@H]1Cn1cc(Nc2ncc3nnn(-c4ccc(Cl)c(F)c4)c3n2)cn1 (relative stereo) [Compound A98, ((trans)-2-{4-[3-(4-chloro-3-fluoro-phenyl)-3H-[1,2,3]triazolo[4,5-d]pyrimidin-5-ylamino]-pyrazol-1-ylmethyl}-cyclopropyl)-methanol]
17 | 300 to 3000 | 3 to 50 | COc1ccc(-n2nnc3cnc(Nc4cnn(-c5ccccc5)c4)nc32)cc1 [Compound A1, [3-(4-methoxy-phenyl)-3H-[1,2,3]triazolo[4,5-d]pyrimidin-5-yl]-(1-phenyl-1H-pyrazol-4-yl)-amine]
18 | < 300 | 3 to 50 | c1ccc(-n2nnc3cnc(Nc4cn[nH]c4)nc32)cc1 [Compound A4, (3-phenyl-3H-[1,2,3]triazolo[4,5-d]pyrimidin-5-yl)-(1H-pyrazol-4-yl)-amine]
19 | < 300 | 0.3 to 3 | COc1ccc(-n2nnc3cnc(Nc4cnn(C5CCNCC5)c4)nc32)cc1 [Compound A6, [3-(4-methoxy-phenyl)-3H-[1,2,3]triazolo[4,5-d]pyrimidin-5-yl]-(1-piperidin-4-yl-1H-pyrazol-4-yl)-amine]
20 | 300 to 3000 | 0.3 to 3 | CN1CCC(n2cc(Nc3ncc4nnn(-c5ccccc5)c4n3)cn2)CC1 [Compound A11, [1-(1-methyl-piperidin-4-yl)-1H-pyrazol-4-yl]-(3-phenyl-3H-[1,2,3]triazolo[4,5-d]pyrimidin-5-yl)-amine]
21 | < 300 | 0.3 to 3 | COCCN1CCC(n2cc(Nc3ncc4nnn(-c5ccc(OC)cc5)c4n3)cn2)CC1 [Compound A26, N-[1-[1-(2-methoxyethyl)-4-piperidyl]pyrazol-4-yl]-3-(4-methoxyphenyl)triazolo[4,5-d]pyrimidin-5-amine]
22 | < 300 | 0.3 to 3 | COc1cc(-n2nnc3cnc(Nc4cnn(C5CCN(C)CC5)c4)nc32)ccn1 [Compound A30, 3-(2-methoxy-4-pyridyl)-N-[1-(1-methyl-4-piperidyl)pyrazol-4-yl]triazolo[4,5-d]pyrimidin-5-amine]
23 | < 300 | 0.3 to 3 | CN1CCC(n2cc(Nc3ncc4nnn(-c5ccc(Cl)c(F)c5)c4n3)cn2)CC1 [Compound A44, [3-(4-chloro-3-fluoro-phenyl)-3H-[1,2,3]triazolo[4,5-d]pyrimidin-5-yl]-[1-(1-methyl-piperidin-4-yl)-1H-pyrazol-4-yl]-amine]
24 | < 300 | 0.3 to 3 | COCCOc1ccc(-n2nnc3cnc(Nc4cnn(C)c4)nc32)cc1 [Compound A56, {3-[4-(2-methoxy-ethoxy)-phenyl]-3H-[1,2,3]triazolo[4,5-d]pyrimidin-5-yl}-(1-methyl-1H-pyrazol-4-yl)-amine]
25 | < 300 | – | CCOc1ccc(-n2nnc3cnc(Nc4cnn(CCN5CCC(O)C5)c4)nc32)cc1 (stereo not drawn) [Compound A151, 1-(2-{4-[3-(4-ethoxy-phenyl)-3H-[1,2,3]triazolo[4,5-d]pyrimidin-5-ylamino]-pyrazol-1-yl}-ethyl)-pyrrolidin-3-ol]
26 | < 300 | – | CC(C)(N)c1ccc(-n2nnc3cnc(Nc4cnn(C5CCOCC5)c4)nc32)cc1 [Compound A152, {3-[4-(1-amino-1-methyl-ethyl)-phenyl]-3H-[1,2,3]triazolo[4,5-d]pyrimidin-5-yl}-[1-(tetrahydro-pyran-4-yl)-1H-pyrazol-4-yl]-amine]
27 | 300 to 3000 | – | CS(=O)(=O)N1CCC(n2cc(Nc3ncc4nnn(-c5ccc(F)c(Cl)c5)c4n3)cn2)CC1 [Compound A154, [3-(3-chloro-4-fluoro-phenyl)-3H-[1,2,3]triazolo[4,5-d]pyrimidin-5-yl]-[1-(1-methanesulfonyl-piperidin-4-yl)-1H-pyrazol-4-yl]-amine]

— patent US9409914B2, “Triazolo[4,5-d]pyrimidine derivatives” (Merck Patent GmbH, priority 2012, dated 2016)
